Data on 24 compounds can be found in patent US8901315B2, “Thienopyrazole derivative having PDE7 inhibitory activity” (Daiichi Sankyo Company, Limited, priority 2004, dated 2014).

Assay [1] addresses PDE 7 (phosphodiesterase VII) (Homo sapiens (Human), UniProt Q13946). Put plainly: PDE 7 inhibiting effect (3H-cAMP hydrolysis, PDE 7 active fraction from MOLT-4 cells). Type of assay: biochemical. The settings on record: PDE 7 fraction from MOLT-4 cells, 0.064 μM cAMP, 10 μM rolipram, 2 hours at 25° C., read-out: PDE7 IC50. As for the experimental part:
Methods for Evaluating the PDE 7 Inhibiting Effect
The PDE 7 (phosphodiesterase VII) inhibiting effect of the compounds of the present invention was performed by the following method, which was modified assay method described in Biochemical. Pharmacol. 48(6), 1219-1223 (1994). • (1) The active fraction of PDE 7 (phosphodiesterase VII) was obtained. That is, MOLT-4 (obtainable from ATCC as ATCC No. CRL-1582), which was cell line of human acute lymphoblastic lymphoma T cells, was incubated in RPMI1640 culture medium containing 10% fetal bovine serum to obtain 5×10^8 MOLT-4 cells. The cells were collected by centrifugation and suspended with 10 mL of buffer solution A [25 mM of tris-HCl, 5 mM of 2-mercaptoethanol, 2 mM of benzamidine, 2 mM of EDTA, 0.1 mM of 4-(2-aminoethyl)benzenesulfonyl hydrochloride; pH 7.5], then homogenized by Polytron® homogenizer. The homogenate were centrifuged under 25,000×G for 10 minutes at 4° C. The supernatant was separated and thus obtained supernatant was further centrifuged under 100,000×G for 60 minutes at 4° C., and then filtrated with 0.2 μm filter to obtain the soluble fraction. • (2) The obtained soluble fraction was filled in equilibrium HiTrap Q column (5 mL×2) with buffer solution A, and phosphodiesterase fractions were eluted by 300 mL of buffer solution A with linear gradient from 0 to 0.8 M NaCl concentration. 5 mL each of 60 eluents were collected, and each eluents were examined for cyclic AMP metabolic activities of phosphodiesterase. […] After the reaction, suspension of Sephadex®-QAE in 10 mM of HEPES-Na (pH 7.0) was added to the reaction mixture, and the mixture was left at rest for 5 minutes.

In assay [2] the target is PDE 4 (phosphodiesterase IV). Put plainly: PDE 4 inhibiting effect (3H-cAMP hydrolysis, PDE 4 active fraction from Balb/c mouse liver). In kind it is biochemical. The settings on record: PDE 4 fraction from Balb/c mice liver, 0.064 μM cAMP, 2 hours at 25° C.; read-out: PDE4 IC50. As for the experimental part:
Methods for Evaluating the PDE 4 Inhibiting Effect
The PDE 4 (phosphodiesterase IV) inhibiting effect of the compounds of the present invention was performed by the following method, which was modified assay method described in Biochemical. […] That is, the livers obtained from three Balb/c mice (male, 12 weeks: obtainable from CLEA Japan, Inc.) were suspended with 30 mL of buffer solution B [20 mM of bis-tris, 5 mM of 2-mercaptoethanol, 2 mM of benzamidine, 2 mM of EDTA, 0.1 mM of 4-(2-aminoethyl)benzenesulfonyl hydrochloride, 50 mM of sodium acetate; pH 6.5], then homogenized by Polytron® homogenizer. The homogenate were centrifuged under 25,000×G for 10 minutes at 4° C. The supernatant was separated and thus obtained supernatant was further centrifuged under 100,000×G for 60 minutes at 4° C., and then filtrated with 0.2 μm filter to obtain the soluble fraction. • (2) The obtained soluble fraction was filled in equilibrium DEAE sepharose column (1×10 cm) with buffer solution B, and phosphodiesterase fractions were eluted by 120 mL of buffer solution B with linear gradient from 0.05 to 1M sodium acetate concentration. 5 mL each of 24 eluents were collected, and each eluents were examined for cyclic AMP metabolic activities of phosphodiesterase. […] After the reaction, suspension of Sephadex®-QAE in 10 mM of HEPES-Na (pH 7.0) was added to the reaction mixture, and the mixture was left at rest for 5 minutes.

The structures appear in SMILES notation. Where a name gives a salt, the structure may show the parent alone. Read-outs that look alike come from different tables or passages of the source.

Sequence of PDE 7 (phosphodiesterase VII) (Q13946 whole entry): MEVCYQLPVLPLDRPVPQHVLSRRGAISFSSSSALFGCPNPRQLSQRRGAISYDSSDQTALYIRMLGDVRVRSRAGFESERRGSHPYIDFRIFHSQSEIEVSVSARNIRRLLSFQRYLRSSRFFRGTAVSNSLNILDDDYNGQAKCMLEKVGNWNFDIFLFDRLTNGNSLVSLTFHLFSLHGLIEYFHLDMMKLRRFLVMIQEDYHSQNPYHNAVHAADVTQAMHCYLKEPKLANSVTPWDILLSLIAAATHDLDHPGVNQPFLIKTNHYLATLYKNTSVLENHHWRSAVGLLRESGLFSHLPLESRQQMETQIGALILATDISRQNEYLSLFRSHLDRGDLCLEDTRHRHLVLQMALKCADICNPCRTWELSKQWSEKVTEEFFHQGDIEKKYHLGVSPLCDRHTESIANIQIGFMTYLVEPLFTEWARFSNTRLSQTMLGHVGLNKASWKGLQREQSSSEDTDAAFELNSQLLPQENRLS

In the case of `Cc1nn(C2CCCCC2)c2sc(C(=O)N[C@H]3C[C@@H]3CO)cc12` (racemic) [Example 340, (±)-1-Cyclohexyl-N-[trans-2-(hydroxymethyl)cyclopropyl]-3-methyl-1H-thieno[2,3-c]pyrazole-5-carboxamide], the IC50 in assay [1] was 54 nM; in assay [2] it was 28000 nM. Turning to `COc1cc(NC(=O)c2cc3c(C)nn(C4CCCCC4)c3s2)ccc1NC(C)=O` [Example 10, N-[4-(Acetylamino)-3-methoxyphenyl]-1-cyclohexyl-3-methyl-1H-thieno[2,3-c]pyrazole-5-carboxamide], the IC50 came out at 27 nM in assay [1] and 1800 nM in assay [2]. In the case of `CC(=O)N1CCc2cc(NC(=O)c3cc4c(C)nn(C5CCCCC5)c4s3)ccc21` [Example 11, N-(1-Acetyl-2,3-dihydro-1H-indo-5-yl)-1-cyclohexyl-3-methyl-1H-thieno[2,3-c]pyrazole-5-carboxamide], the IC50 in assay [1] turned out to be 19 nM; in assay [2], 2000 nM. In the case of `CCOC(=O)Nc1ccc(NC(=O)c2cc3c(C)nn(C4CCCCC4)c3s2)cc1` [Example 12, Ethyl 4-{[(1-cyclohexyl-3-methyl-1H-thieno[2,3-c]pyrazol-5-yl)-carbonyl]amino}phenylcarbamate], the IC50 in assay [1] came to 53 nM; in assay [2] it was 5000 nM. Consider `Cc1nn(C2CCCCC2)c2sc(C(=O)Nc3ccc4c(c3)CCN4)cc12` [Example 14, 1-Cyclohexyl-N-(2,3-dihydro-1H-indol-5-yl)-3-methyl-1H-thieno[2,3-c]pyrazole-5-carboxamide HCl salt], for which the results for the IC50 in assay [1] and in assay [2] were 88 nM and 3700 nM, respectively. Regarding `CNC(=O)c1ccc(NC(=O)c2cc3c(C)nn(C4CCCCC4)c3s2)cc1` [Example 20], the IC50 was 33 nM in assay [1] and greater than 30000 nM in assay [2]. The like results for `CCC(=O)N1CCc2cc(NC(=O)c3cc4c(C)nn(C5CCCCC5)c4s3)ccc21` [Example 21, 1-Cyclohexyl-3-methyl-N-(1-propionyl-2,3-dihydro-1H-indol-5-yl)-1H-thieno-[2,3-c]pyrazole-5-carboxamide] were, in that order, 84 nM and 2500 nM. The like results for `Cc1nn(C2CCCCC2)c2sc(C(=O)Nc3ccc4c(c3)CCN4C(=O)C(C)C)cc12` [Example 23] were, in that order, 83 nM and 4800 nM. The like results for `Cc1nn(C2CCCCC2)c2sc(C(=O)Nc3ccc4c(c3)CCN4C(=O)C(C)(C)C)cc12` [Example 25, 1-Cyclohexyl-N-[1-(2,2-dimethylpropanoyl)-2,3-dihydro-1H-indol-5-yl]-3-methyl-1H-thieno[2,3-c]pyrazole-5-carboxamide] were, in that order, 98 nM and 6500 nM.

In the case of `Cc1nn(C2CCCCC2)c2sc(C(=O)Nc3ccc4c(c3)CC(=O)N4)cc12` [Example 26, 1-Cyclohexyl-3-methyl-N-(2-oxo-2,3-dihydro-1H-indol-5-yl)-1H-thieno[2,3-c]pyrazole-5-carboxamide], the IC50 in assay [1] came to 44 nM; in assay [2], 3000 nM.

For `CCNC(=O)c1ccc(NC(=O)c2cc3c(C)nn(C4CCCCC4)c3s2)cc1` [Example 28, 1-Cyclohexyl-N-{4-[(ethylamino)carbonyl]phenyl}-3-methyl-1H-thieno[2,3-c]pyrazole-5-carboxamide], the IC50 was determined as 50 nM in assay [1] and 30000 nM in assay [2]. With `Cc1nn(C2CCCCC2)c2sc(C(=O)Nc3ccc(C(=O)N4CCN(C)CC4)cc3)cc12` [Example 32, 1-Cyclohexyl-3-methyl-N-{4-[(4-methyl-1-piperazinyl)carbonyl]-phenyl}-1H-thieno[2,3-c]pyrazole-5-carboxamide], the IC50 in assay [1] came to 95 nM; in assay [2], 2500 nM. Regarding `Cc1nn(C2CCCCC2)c2sc(C(=O)Nc3ccc(S(=O)(=O)N4CCN(CCO)CC4)cc3)cc12` [Example 79, 1-Cyclohexyl-N-(4-{[4-(2-hydroethyl)-1-piperazinyl]sulfonyl}-phenyl)-3-methyl-1H-thieno[2,3-c]pyrazole-5-carboxamide], the IC50 in assay [1] amounted to 60 nM. Still for that read-out and setting: the value for `Cc1nn(C2CCCCC2)c2sc(C(=O)Nc3ccc(N4CCC(O)CC4)cc3)cc12` [Example 114] was 21 nM. As for `Cc1nn(C2CCCCC2)c2sc(C(=O)Nc3ccc(N4CCC(O)CC4)c(F)c3)cc12` [Example 159, 1-Cyclohexyl-N-[3-fluoro-4-(4-hydroxy-1-piperidinyl)phenyl]-3-methyl-1H-thieno[2,3-c]pyrazole-5-carboxamide], the IC50 in assay [1] came out at 35 nM.

For `CNC(=O)[C@H]1CC[C@H](NC(=O)c2cc3c(C)nn(C4CCCCC4)c3s2)CC1` [Example 237, 1-Cyclohexyl-3-methyl-N-{4-[(methylamino)carbonyl]cyclohexyl}-1H-thieno[2,3-c]pyrazole-5-carboxamide], the IC50 in assay [1] turned out to be 7.8 nM.

Turning to `Cc1nn(C2CCCCC2)c2sc(C(=O)NC3CCN(S(=O)(=O)N(C)C)CC3)cc12` [Example 240, 1-Cyclohexyl-N-{1-[(dimethylamino)sulfonyl]-4-piperidinyl}-3-methyl-1H-thieno[2,3-c]pyrazole-5-carboxamide], the IC50 in assay [1] amounted to 41 nM. On the same count and under the same terms, the value for `Cc1nn(C2CCCCC2)c2sc(C(=O)N[C@H]3CCN(C(=O)N(C)C)C3)cc12` [Example 246, 1-Cyclohexyl-N-{(3S)-1-[(dimethylamino)carbonyl]pyrrolidinyl}-3-methyl-1H-thieno[2,3-c]pyrazole-5-carboxamide HCl salt] was 51 nM; that for `Cc1nn(C2CCCCC2)c2sc(C(=O)N[C@@H]3CCN(C(=O)N(C)C)C3)cc12` [Example 323, 1-Cyclohexyl-N-{(3R)-1-[(dimethylamino)carbonyl]pyrrolidinyl}-3-methyl-1H-thieno[2,3-c]pyrazole-5-carboxamide HCl salt] was 71 nM. `Cc1nn(C2CCCCC2)c2sc(C(=O)Nc3ccc(N4CCC(O)CC4)c(F)c3)cc12` [Example 365, 1-cyclohexyl-N-[3-fluoro-4-(4-hydroxy-1-piperidinyl)phenyl]-3-methyl-1H-thieno[2,3-c]pyrazole-5-carboxamide dimethanesulfonate]: the IC50 in assay [1] (dimethanesulfonate) stood at 41 nM. Turning to `Cc1nn(C2CCCCC2)c2sc(C(=O)Nc3ccc(N4CCC(O)CC4)c(F)c3)cc12` [Example 366, 1-Cyclohexyl-N-[3-fluoro-4-(4-hydroxy-1-piperidinyl)phenyl]-3-methyl-1H-thieno[2,3-c]pyrazole-5-carboxamide p-toluenesulfonate], in assay [1] (p-toluenesulfonate), the IC50 is 49 nM. With `Cc1nn(C2CCCCC2)c2sc(C(=O)Nc3ccc(N4CCC(O)CC4)cc3)cc12` [Example 367, 1-Cyclohexyl-N-[4-(4-hydroxy-1-piperidinyl)phenyl]-3-methyl-1H-thieno[2,3-c]pyrazole-5-carboxamide methanesulfonate], the IC50 in assay [1] (methanesulfonate) was 20 nM. For `Cc1nn(C2CCCCC2)c2sc(C(=O)Nc3ccc(N4CCC(O)CC4)cc3)cc12` [Example 368, 1-Cyclohexyl-N-[4-(4-hydroxy-1-piperidinyl)phenyl]-3-methyl-1H-thieno[2,3-c]pyrazole-5-carboxamide p-toluenesulfonate], the IC50 in assay [1] (p-toluenesulfonate) worked out at 26 nM. As to `Cc1nn(C2CCCCC2)c2sc(C(=O)Nc3ccc(CN4CCOCC4)nc3)cc12` [Example 412, 1-Cyclohexyl-3-methyl-N-[6-(4-morpholinylmethyl)-3-pyridinyl]-1H-thieno[2,3-c]pyrazole-5-carboxamide methanesulfonate], the IC50 in assay [1] was determined as 43 nM.

The IC50 is the midpoint of a concentration-inhibition curve.
